This test deals with SARS-CoV-2 replicon. The test is classed as cell-based. Conditions: read-out: SARS-CoV-2 Replicon (Huh-7cell) EC50. In general terms: In antiviral work, replicon cells carry a viral genome segment that copies itself.

On to `CCCCCCCCCCCCOC(=O)[C@H](C)N[P@@](=O)(OC[C@H]1O[C@@](C#N)(c2ccc3c(N)ncnn23)[C@H](OC(=O)C(C)C)[C@@H]1OC(=O)C(C)C)Oc1ccccc1` [Compound 46a], for which the EC50 is 50 to 500 nM. As for `CCCCCCCCCCCCOC(=O)[C@H](C)N[P@](=O)(OC[C@H]1O[C@@](C#N)(c2ccc3c(N)ncnn23)[C@H](OC(=O)C(C)C)[C@@H]1OC(=O)C(C)C)Oc1ccccc1` [Compound 46b, (2R,3R,4R,5R)-2-(4-aminopyrrolo[2,1-f][1,2,4]triazin-7-yl)-2-cyano-5-((((S)-(((S)-1-(dodecyloxy)-1-oxopropan-2-yl)amino)(phenoxy)phosphoryl)oxy)methyl)tetrahydrofuran-3,4-diyl bis(2-methylpropionate)], the EC50 fell in the range of 50 to 500 nM. Then `CCCCC/C=C\C/C=C\CCCCCCCCOC(=O)[C@H](C)NP(=O)(OCOC(=O)C(C)(C)C)OC[C@H]1O[C@@](C#N)(c2ccc3c(N)ncnn23)[C@H](OC(=O)C(C)C)[C@@H]1OC(=O)C(C)C` (stereo partly drawn) [Compound 51, (2R,3R,4R,5R)-2-(4-aminopyrrolo[2,1-f][1,2,4]triazin-7-yl)-2-cyano-5-((((((S)-1-(((9Z,12Z)-octadeca-9,12-dien-1-yl)oxy)-1-oxopropan-2-yl)amino)((pivaloyloxy)methoxy)phosphoryl)oxy)methyl)tetrahydrofuran-3,4-diyl bis(2-methylpropionate)], with 50 to 500 nM; and `CCCCC/C=C\C/C=C\CCCCCCCCOC(=O)[C@H](C)N[P@](=O)(OCOC(=O)OC(C)C)OC[C@H]1O[C@@](C#N)(c2ccc3c(N)ncnn23)[C@H](OC(=O)C(C)C)[C@@H]1OC(=O)C(C)C` [Compound 52a, (2R,3R,4R,5R)-2-(4-aminopyrrolo[2,1-f][1,2,4]triazin-7-yl)-2-cyano-5-((((R)-(((isopropoxycarbonyl)oxy)methoxy)(((S)-1-(((9Z,12Z)-octadeca-9,12-dien-1-yl)oxy)-1-oxopropan-2-yl)amino)phosphoryl)oxy)methyl)tetrahydrofuran-3,4-diyl bis(2-methylpropionate)], with 50 to 500 nM; and `CCCCC/C=C\C/C=C\CCCCCCCCOC(=O)[C@H](C)N[P@@](=O)(OCOC(=O)OC(C)C)OC[C@H]1O[C@@](C#N)(c2ccc3c(N)ncnn23)[C@H](OC(=O)C(C)C)[C@@H]1OC(=O)C(C)C` [Compound 52b, (2R,3R,4R,5R)-2-(4-aminopyrrolo[2,1-f][1,2,4]triazin-7-yl)-2-cyano-5-((((S)-(((isopropoxycarbonyl)oxy)methoxy)(((S)-1-(((9Z,12Z)-octadeca-9,12-dien-1-yl)oxy)-1-oxopropan-2-yl)amino)phosphoryl)oxy)methyl)tetrahydrofuran-3,4-diyl bis(2-methylpropionate)], with 50 to 500 nM. Regarding `CCC(CC)COC(=O)[C@H](Cc1ccccc1)N[P@@](=O)(OC[C@H]1O[C@@](C#N)(c2ccc3c(N)ncnn23)[C@H](OC(=O)C(C)C)[C@@H]1OC(=O)C(C)C)Oc1ccc(C(C)(C)C)cc1` [Compound 53a, (2R,3R,4R,5R)-2-(4-aminopyrrolo[2,1-f][1,2,4]triazin-7-yl)-2-cyano-5-((((((S)-1-(2-ethylbutoxy)-1-oxo-3-phenylpropan-2-yl)amino)((R)-4-tert-butylphenoxy)phosphoryl)oxy)methyl)tetrahydrofuran-3,4-diyl bis(2-methylpropionate)], the EC50 lay in the range of 50 to 500 nM. On to `CCC(CC)COC(=O)[C@H](Cc1ccccc1)N[P@](=O)(OC[C@H]1O[C@@](C#N)(c2ccc3c(N)ncnn23)[C@H](OC(=O)C(C)C)[C@@H]1OC(=O)C(C)C)Oc1ccc(C(C)(C)C)cc1` [Compound 53b, (2R,3R,4R,5R)-2-(4-aminopyrrolo[2,1-f][1,2,4]triazin-7-yl)-2-cyano-5-((((((S)-1-(2-ethylbutoxy)-1-oxo-3-phenylpropan-2-yl)amino)((S)-4-tert-butylphenoxy)phosphoryl)oxy)methyl)tetrahydrofuran-3,4-diyl bis(2-methylpropionate)], for which the EC50 lay in the range of 10 to 50 nM. For the compound `CC(C)C(=O)O[C@H]1[C@@H](OC(=O)C(C)C)[C@](C#N)(c2ccc3c(N)ncnn23)O[C@@H]1CO[P@](=O)(N[C@@H](CC(=O)OC1CCC1)C(=O)OC1CCC1)Oc1ccccc1` [Compound 54a, (2R,3R,4R,5R)-2-(4-aminopyrrolo[2,1-f][1,2,4]triazin-7-yl)-2-cyano-5-((((R)-(((S)-1,4-dicyclobutoxy-1,4-dioxobutan-2-yl)amino)(phenoxy)phosphoryl)oxy)methyl)tetrahydrofuran-3,4-diyl bis(2-methylpropionate)], the EC50 fell in the range of 10 to 50 nM. Then `CC(C)C(=O)O[C@H]1[C@@H](OC(=O)C(C)C)[C@](C#N)(c2ccc3c(N)ncnn23)O[C@@H]1CO[P@@](=O)(N[C@@H](CC(=O)OC1CCC1)C(=O)OC1CCC1)Oc1ccccc1` [Compound 54b, (2R,3R,4R,5R)-2-(4-aminopyrrolo[2,1-f][1,2,4]triazin-7-yl)-2-cyano-5-((((S)-(((S)-1,4-dicyclobutoxy-1,4-dioxobutan-2-yl)amino)(phenoxy)phosphoryl)oxy)methyl)tetrahydrofuran-3,4-diyl bis(2-methylpropionate)], with below 5 nM. In the case of `CCC(CC)COC(=O)C[C@H](N[P@@](=O)(OC[C@H]1O[C@@](C#N)(c2ccc3c(N)ncnn23)[C@H](OC(=O)C(C)C)[C@@H]1OC(=O)C(C)C)Oc1ccccc1)C(=O)OCC(CC)CC` [Compound 62a, (2R,3R,4R,5R)-2-(4-aminopyrrolo[2,1-f][1,2,4]triazin-7-yl)-2-cyano-5-((((R)-(((S)-1,4-bis(2-ethylbutoxy)-1,4-dioxobutan-2-yl)amino)(phenoxy)phosphoryl)oxy)methyl)tetrahydrofuran-3,4-diyl bis(2-methylpropionate)], the half-maximal effective concentration (EC50) fell in the range of 50 to 500 nM. Then `CCC(CC)COC(=O)C[C@H](N[P@](=O)(OC[C@H]1O[C@@](C#N)(c2ccc3c(N)ncnn23)[C@H](OC(=O)C(C)C)[C@@H]1OC(=O)C(C)C)Oc1ccccc1)C(=O)OCC(CC)CC` [Compound 62b, (2R,3R,4R,5R)-2-(4-aminopyrrolo[2,1-f][1,2,4]triazin-7-yl)-2-cyano-5-((((S)-(((S)-1,4-bis(2-ethylbutoxy)-1,4-dioxobutan-2-yl)amino)(phenoxy)phosphoryl)oxy)methyl)tetrahydrofuran-3,4-diyl bis(2-methylpropionate)], with 10 to 50 nM; and `CC(C)C(=O)O[C@H]1[C@@H](OC(=O)C(C)C)[C@](C#N)(c2ccc3c(N)ncnn23)O[C@@H]1CO[P@](=O)(N[C@@H](Cc1ccccc1)C(=O)OC1CCC1)Oc1ccccc1` [Compound 63a], with 10 to 50 nM; and `CC(C)C(=O)O[C@H]1[C@@H](OC(=O)C(C)C)[C@](C#N)(c2ccc3c(N)ncnn23)O[C@@H]1CO[P@@](=O)(N[C@@H](Cc1ccccc1)C(=O)OC1CCC1)Oc1ccccc1` [Compound 63b, (2R,3R,4R,5R)-2-(4-aminopyrrolo[2,1-f][1,2,4]triazin-7-yl)-2-cyano-5-((((S)-(((S)-1-cyclobutoxy-1-oxo-3-phenylpropan-2-yl)amino)(phenoxy)phosphoryl)oxy)methyl)tetrahydrofuran-3,4-diyl bis(2-methylpropionate)], with below 5 nM. `COC(C)(C)COC(=O)[C@H](Cc1ccccc1)N[P@@](=O)(OC[C@H]1O[C@@](C#N)(c2ccc3c(N)ncnn23)[C@H](OC(=O)C(C)C)[C@@H]1OC(=O)C(C)C)Oc1ccccc1` [Compound 64a, (2R,3R,4R,5R)-2-(4-aminopyrrolo[2,1-f][1,2,4]triazin-7-yl)-2-cyano-5-((((R)-(((S)-1-(2-methoxy-2-methylpropoxy)-1-oxo-3-phenylpropan-2-yl)amino)(phenoxy)phosphoryl)oxy)methyl)tetrahydrofuran-3,4-diyl bis(2-methylpropionate)]: the EC50 is below 5 nM. Regarding `COC(C)(C)COC(=O)[C@H](Cc1ccccc1)N[P@](=O)(OC[C@H]1O[C@@](C#N)(c2ccc3c(N)ncnn23)[C@H](OC(=O)C(C)C)[C@@H]1OC(=O)C(C)C)Oc1ccccc1` [Compound 64b, (2R,3R,4R,5R)-2-(4-aminopyrrolo[2,1-f][1,2,4]triazin-7-yl)-2-cyano-5-((((S)-(((S)-1-(2-methoxy-2-methylpropoxy)-1-oxo-3-phenylpropan-2-yl)amino)(phenoxy)phosphoryl)oxy)methyl)tetrahydrofuran-3,4-diyl bis(2-methylpropionate)], the EC50 is below 5 nM. Turning to `CC(C)OC(=O)OCOP(=O)(OCOC(=O)OC(C)C)OC[C@H]1O[C@@](C#N)(c2c(Br)cc3c(N)ncnn23)[C@H](OC(=O)C(C)C)[C@@H]1OC(=O)C(C)C` [Compound 65, (2R,3R,4R,5R)-2-(4-amino-6-bromopyrrolo[2,1-f][1,2,4]triazin-7-yl)-5-(((bis(((isopropoxycarbonyl)oxy)methoxy)phosphoryl)oxy)methyl)-2-cyanotetrahydrofuran-3,4-diyl bis(2-methylpropionate)], the EC50 lay in the range of 50 to 500 nM. For “(2R,3R,4R,5R)-2-(4-aminopyrrolo[2,1-f][1,2,4]triazin-7-yl)-2-cyano-5-((((R)-(((S)-1-(2-ethylbutoxy)-1-oxopropan-2-yl)amino)(((isopropoxycarbonyl)oxy)methoxy)phosphoryl)oxy)methyl)tetrahydrofuran-3,4-diyl diacetate [Compound 5a]”, the concentration for a half-maximal effect (EC50) fell in the range of 50 to 500 nM. Regarding “(2R,3R,4R,5R)-2-(4-aminopyrrolo[2,1-f][1,2,4]triazin-7-yl)-2-cyano-5-((((R)-(((S)-1-isopropoxy-1-oxopropan-2-yl)amino)(((isopropoxycarbonyl)oxy)methoxy)phosphoryl)oxy)methyl)tetrahydrofuran-3,4-diyl diacetate [Compound 1a]”, the EC50 was 10 to 50 nM.

On to “(2R,3R,4R,5R)-2-(4-aminopyrrolo[2,1-f][1,2,4]triazin-7-yl)-2-cyano-5-((((S)-(((S)-1-(2-ethylbutoxy)-1-oxopropan-2-yl)amino)(((isopropoxycarbonyl)oxy)methoxy)phosphoryl)oxy)methyl)tetrahydrofuran-3,4-diyl diacetate [Compound 5b]”, for which the EC50 fell in the range of 5 to 10 nM. For the compound “(2R,3R,4R,5R)-2-(4-aminopyrrolo[2,1-f][1,2,4]triazin-7-yl)-2-cyano-5-((((S)-(((S)-1-isopropoxy-1-oxopropan-2-yl)amino)(((isopropoxycarbonyl)oxy)methoxy)phosphoryl)oxy)methyl)tetrahydrofuran-3,4-diyl diacetate [Compound 1b]”, the EC50 fell in the range of 5 to 10 nM.

A word on the EC50: it is the concentration giving half of the maximal effect.

Values taken from patent EP4617278A1, “NUCLEOTIDE ANALOG, AND COMPOSITION AND USE THEREOF” (priority 2022, dated 2024).
